Test results: US11964000B2, “Cancer treatment methods using nanofiber stabilized growth factors” (Northwestern University, priority 2020, dated 2024)
Entries after “also recorded” stand apart in the source; their conditions may differ. Residues, ends and D or L forms follow the SMILES beside them. Groups on a side chain read outwards from the residue. *: point of attachment. X1 = CC(=O)N[C@H]1[C@H](OCCn2cc(CCC(=O)*)nn2)O[C@H](COS(=O)(=O)O)[C@@H](OS(=O)(=O)O)[C@@H]1OS(=O)(=O)O; Palmitoyl = CCCCCCCCCCCCCCCC(=O)*; AEEA = NCCOCCOCC(=O)O

Key:
KNS42 cells = assay: KNS42 cell viability in response to vincristine and vinblastine after BMP4 treatment; assay type: cell-based, human
From the text: (§1) FIG. 2. BMP4 increases chemotherapeutic efficacy via reducing SETD1A and H3K4me3. (FIG. 2A) H3K4me3 levels in pediatric high-grade glioma cells in response to BMP4 (1 to 100/ng/ml). (FIG. 2B) SETD1A, SMAD1/5/8, MDR1, H3K4me3 levels in pediatric high-grade glioma-KNS42 cells and LCH-13-pGBM patient derived primary cultured cells. (FIG. 2C) KNS42 cell viability in response to vincristine (VCR) and vinblastine (VBL) with/without Dorsomorphine, a phosphoSMAD1/5/8 inhibitor. (FIG. 2D, FIG. 2E) KNS42 cell viability in response to VCR and VBL following down- or up-regulation of SETD1A via siSETD1A (D) or pET28-SETD1A and pET28-SETD1A with PSC833, a specific MDR1 inhibitor (E), respectively. (FIG. 2F) Protein immunoprecipitation with SMAD1/5/8, pSMAD1/5/8 antibodies from total protein extracts from BMP4 treated KNS42 cells using Biotin-streptavidin kit (Thermo Fisher) and detected with SETD1A, SMAD1/5/8, pSMAD1/5/8 using western blots.
(§2) This decreasing effect is reversed by Dorsomorphine, an inhibitor of pSMAD1/5/8 (FIG. 2C). In parallel, it was also tested and verified that SETD1A is associated with chemosensitivity in vitro in HGG cells (FIGS. 2D and E). […] Thus, it was hypothesized that BMP4 is altering gene expression through its effect on histone PTM. These findings prompted investigation of 1) in addition to H3K4me3, determining other histone PTMs that are affected subsequent to BMP4 treatment of tumor cells; and 2) other gene expression alterations that contribute to the heightened tumor cell response to cytotoxic therapy following BMP4 treatment.

BMP4 = target: T1, BMP4 (Homo sapiens, UniProt P12644); assay: ELISA of BMP4 half-life with peptide amphiphile nanostructures; settings: BMP4 with PA nanostructures
T1 sequence (P12644 293-408): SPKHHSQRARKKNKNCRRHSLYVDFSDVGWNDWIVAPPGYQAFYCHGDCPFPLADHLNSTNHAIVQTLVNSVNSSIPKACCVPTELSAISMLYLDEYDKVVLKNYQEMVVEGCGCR
Experimental: FIG. 3. […] (FIG. 3A) Molecular structure of GlncPA molecule (i.e. the glycosylated peptide amphiphile or “GPA”) and schematic of the self-assembled GlncPA nanofiber. The grey molecular region guides the self-assembly process into nanofibers, the blue molecular region contains the tri-sulfated monosaccharide responsible for protein binding actions. (FIG. 3B) SEM of GlncPA nanofiber bundles after exposure to blood proteins for 5 minutes. […] (Abbreviation: E2PA=filler PA=E2-PA, GlncPA=glycosylated PA=GPA)
The grey molecular region guides the self-assembly process into nanofibers, the blue molecular region contains the tri-sulfated monosaccharide responsible for protein binding actions.

HGG cells = assay: HGG cell chemosensitivity (carboplatin) with PA-bound BMP4; assay type: cell-based, human; settings: PA 25 μM with BMP4 5 ng/ml; response to carboplatin treatment
From the text: (§3) FIG. 5. Self-assembled peptide amphiphile nanostructures extend and enhance BMP4 effects in pediatric high grade glioma cells in vitro. (FIG. 5A) Western blots show PAs enhance BMP4 function by activating its downstream target pSMAD1/5/8 in pediatric glioma KNS42 (FIG. 5B) and CHLA200 cells. (FIG. 5C) Increased therapeutic efficacy in response to carboplatin treatment.
(§4) To investigate biological effects of PA-BMP4, HGG responses to different types of PAs, both with and without bound BMP4, were analyzed. HGG cells were treated with BMP4 (5 ng/ml), GlncPA (25 μM) and GlncPA (25 μM)-BMP4 (5 ng/ml), E2-PA (25 μM) and E2-PA (25 μM)-BMP4 (5 ng/ml) for 24h and 72h.

pSMAD1/5/8 = assay: Western blot of pSMAD1/5/8 in HGG cells treated with PAs with and without BMP4; assay type: cell-based, human; settings: PA 25 μM with BMP4 5 ng/ml, 24h and 72h; KNS42 and CHLA200 cells
From the text: as §3, §4

[1] = Cy3-coupled PA, intracranial injection, compared with E2PA and MixPA
From the text: (FIG. 6A) Intracranial distribution of glycosylated (GlncPA), E2 (E2PA) and glycosylated+E2 (MixPA) peptide amphiphiles coupled with Cy3.
Intracranial distribution of PAs administered directly into mouse brain, as well as the anti-tumor activity of direct intratumoral administration of PA-bound BMP4, was investigated.

pSMAD1/5/8, SETD1A, MDR1 = assay: Western blot of SETD1A, SMAD1/5/8, MDR1 in KNS42 cells and LCH-13-pGBM primary cultured cells after BMP4; assay type: cell-based, human; settings: KNS42 and LCH-13-pGBM cells, BMP4 treatment
From the text: as §1, §2

H3K4me3 = H3K4me3 levels in pediatric high-grade glioma cells in response to BMP4; assay type: cell-based, human; settings: BMP4 1 to 100 ng/ml
From the text: as §1
This decreasing effect is reversed by Dorsomorphine, an inhibitor of pSMAD1/5/8 (FIG. 2C). In parallel, it was also tested and verified that SETD1A is associated with chemosensitivity in vitro in HGG cells (FIGS. 2D and E). […] Thus, it was hypothesized that BMP4 is altering gene expression through its effect on histone PTM. […]

## c1cc(-c2cnn3cc(-c4ccc(OCCN5CCCCC5)cc4)cnc23)ccn1 [Dorsomorphine, reference compound]
KNS42 cells; Dorsomorphine, inhibitor of pSMAD1/5/8, added
  effect on BMP4-induced decrease of cell viability with VCR or VBL: reversed

## CCCCCCCCCCCCCCCC(=O)N[C@H](C(=O)N[C@H](C(=O)N[C@@H](C)C(=O)N[C@@H](C)C(=O)N[C@@H](CCC(=O)O)C(=O)N[C@@H](CCC(=O)O)C(N)=O)C(C)C)C(C)C [E2-PA] (Palmitoyl-VVAAEE-NH2)
BMP4
  BMP4 half-life: extend BMP4 half-life
HGG cells
  HGG cell chemosensitivity: increased HGG cell chemosensitivity
pSMAD1/5/8
  BMP4 activity as phosphorylation of SMAD1/5/8: enhance BMP4 activity

## CCCCCCCCCCCCCCCC(=O)N[C@H](C(=O)N[C@H](C(=O)N[C@@H](C)C(=O)N[C@@H](C)C(=O)N[C@@H](CCC(=O)O)C(=O)N[C@@H](CCC(=O)O)C(=O)N[C@@H](CCCCNC(=O)COCCOCCNC(=O)CCc1cn(CCO[C@@H]2O[C@H](COS(=O)(=O)O)[C@@H](OS(=O)(=O)O)[C@H](OS(=O)(=O)O)[C@H]2NC(C)=O)nn1)C(N)=O)C(C)C)C(C)C [GlncPA] (Palmitoyl-VVAAEEK([AEEA-X1])-NH2)
BMP4
  BMP4 half-life: markedly prolong the half-life of BMP4
[1]
  intracranial distribution: greater distribution

B1: Bone morphogenetic protein 4 (protein)
chain: SPKHHSQRARKKNKNCRRHSLYVDFSDVGWNDWIVAPPGYQAFYCHGDCPFPLADHLNSTNHAIVQTLVNSVNSSIPKACCVPTELSAISMLYLDEYDKVVLKNYQEMVVEGCGCR
pSMAD1/5/8, SETD1A, MDR1
  expression of SETD1A: decreasing expression of SETD1A
  expression of multidrug resistant gene 1 (MDR1): decreasing expression
  phosphorylation of SMAD1/5/8 (pSMAD1/5/8): increases phosphorylation of SMAD1/5/8
KNS42 cells; BMP4 for 48 hrs, then VBL 2 μg/ml, relative to VBL alone
  cell viability with vinblastine (VBL): markedly decreased cell viability
KNS42 cells; BMP4 for 48 hrs, then VCR 1 μg/ml, relative to VCR alone
  cell viability with vincristine (VCR): markedly decreased cell viability
H3K4me3
  H3K4me3 level: reduces H3K4me3; also recorded: significant decrease in H3K4me3
